Test results reported in US9113629B2, “4-amino-6-(4-substituted-phenyl)-picolinates and 6-amino-2-(4-substituted-phenyl)-pyrimidine-4-carboxylates and their use as herbicides” (DOW AGROSCIENCES LLC, priority 2013, dated 2015).
Read-outs that look alike come from different tables or passages of the source.

Assays:
[1] = tested on: Key Grass and Sedge Weeds as well as Grass Crops; assay: Post-emergent Test II herbicidal activity (Table 6); format: in vivo; conditions: post-emergence, 336 h
Outline: (§1)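 Greenhouse-grown plants at first or second true leaf stage were sprayed post-emergence with compound in acetone/DMSO-based aqueous spray containing crop oil concentrate and surfactant, at 187 L/ha, highest rate plus ½× to 1/16× dilutions. After 14 d, injury was scored visually versus untreated plants, 0 (none) to 100% (complete kill).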

[2] = tested on: Key Broadleaf Weed and Crop Species; assay: Post-emergent Test II herbicidal activity (Table 5); format: in vivo; conditions: post-emergence, 336 h, 14 days after application; for pest or weed control at 70 g/ha: application rate 70 g ai/ha; for pest or weed control at 140 g/ha: application rate 140 g ai/ha
Outline: as §1

[3] = CYPES: yellow nutsedge (Cyperus esculentus), 70 g ai/ha, read-out: Visual Growth Reduction (%) 14 Days After Application, CYPES
[4] = CYPES: yellow nutsedge (Cyperus esculentus), 140 g ai/ha, read-out: Visual Growth Reduction (%) 14 Days After Application, CYPES
[5] = DIGSA: crabgrass (Digitaria sanguinalis), 70 g ai/ha, read-out: Visual Growth Reduction (%) 14 Days After Application, DIGSA
[6] = DIGSA: crabgrass (Digitaria sanguinalis), 140 g ai/ha, read-out: Visual Growth Reduction (%) 14 Days After Application, DIGSA
[7] = ECHCG: barnyardgrass (Echinochloa crus-galli), 70 g ai/ha, read-out: Visual Growth Reduction (%) 14 Days After Application, ECHCG
[8] = ECHCG: barnyardgrass (Echinochloa crus-galli), 140 g ai/ha, read-out: Visual Growth Reduction (%) 14 Days After Application, ECHCG
[9] = ORYSA: rice (Oryza sativa), crop, 70 g ai/ha, read-out: Visual Growth Reduction (%) 14 Days After Application, ORYSA
[10] = ORYSA: rice (Oryza sativa), crop, 140 g ai/ha, read-out: Visual Growth Reduction (%) 14 Days After Application, ORYSA
[11] = SETFA: giant foxtail (Setaria faberi), 70 g ai/ha, read-out: Visual Growth Reduction (%) 14 Days After Application, SETFA
[12] = SETFA: giant foxtail (Setaria faberi), 140 g ai/ha, read-out: Visual Growth Reduction (%) 14 Days After Application, SETFA
[13] = SORVU: grain sorghum (Sorghum vulgare), 70 g ai/ha, read-out: Visual Growth Reduction (%) 14 Days After Application, SORVU
[14] = SORVU: grain sorghum (Sorghum vulgare), 140 g ai/ha, read-out: Visual Growth Reduction (%) 14 Days After Application, SORVU
[15] = TRZSS (wheat, Triticum aestivum), crop, 70 g ai/ha, read-out: Visual Growth Reduction (%) 14 Days After Application, TRZSS
[16] = TRZSS (wheat, Triticum aestivum), crop, 140 g ai/ha, read-out: Visual Growth Reduction (%) 14 Days After Application, TRZSS
[17] = ZEAMX: maize, corn (Zea mays), crop, 70 g ai/ha, read-out: Visual Growth Reduction (%) 14 Days After Application, ZEAMX
[18] = ZEAMX: maize, corn (Zea mays), crop, 140 g ai/ha, read-out: Visual Growth Reduction (%) 14 Days After Application, ZEAMX
[19] = ABUTH: velvetleaf (Abutilon theophrasti), read-out: Visual Growth Reduction (%) 14 Days After Application, ABUTH
[20] = AMARE: redroot pigweed (Amaranthus retroflexus), read-out: Visual Growth Reduction (%) 14 Days After Application, AMARE
[21] = BRSNN: oilseed-rape, canola (Brassica napus), read-out: Visual Growth Reduction (%) 14 Days After Application, BRSNN
[22] = CHEAL: lambsquarters (Chenopodium album), read-out: Visual Growth Reduction (%) 14 Days After Application, CHEAL
[23] = EPHHL: wild poinsettia (Euphorbia heterophylla), read-out: Visual Growth Reduction (%) 14 Days After Application, EPHHL
[24] = HELAN: sunflower (Helianthus annuus), read-out: Visual Growth Reduction (%) 14 Days After Application, HELAN
[25] = VIOTR: wild pansy (Viola tricolor), read-out: Visual Growth Reduction (%) 14 Days After Application, VIOTR

COC(=O)c1nc(-c2ccc(I)cc2F)c(F)c(N)c1Cl [Compound 9]
pest or weed control at 70 g/ha [1, 3]: 0 to 29% | pest or weed control at 140 g/ha [1, 4]: 0 to 29% | pest or weed control at 70 g/ha [1, 5]: 0 to 29% | pest or weed control at 140 g/ha [1, 6]: 0 to 29% | pest or weed control at 70 g/ha [1, 7]: 0 to 29% | pest or weed control at 140 g/ha [1, 8]: 0 to 29% | pest or weed control at 70 g/ha [1, 9]: 0 to 29% | pest or weed control at 140 g/ha [1, 10]: 0 to 29% | pest or weed control at 70 g/ha [1, 11]: 0 to 29% | pest or weed control at 140 g/ha [1, 12]: 0 to 29% | pest or weed control at 70 g/ha [1, 13]: 0 to 29% | pest or weed control at 140 g/ha [1, 14]: 0 to 29% | pest or weed control at 70 g/ha [1, 15]: 0 to 29% | pest or weed control at 140 g/ha [1, 16]: 0 to 29% | pest or weed control at 70 g/ha [1, 17]: 0 to 29% | pest or weed control at 140 g/ha [1, 18]: 0 to 29% | melting point: 136 to 138 °C | pest or weed control at 70 g/ha [2, 19]: 0 to 29% | pest or weed control at 140 g/ha [2, 19]: 0 to 29% | pest or weed control at 70 g/ha [2, 20]: 0 to 29% | pest or weed control at 140 g/ha [2, 20]: 0 to 29% | pest or weed control at 70 g/ha [2, 21]: 0 to 29% | pest or weed control at 140 g/ha [2, 21]: 0 to 29% | pest or weed control at 70 g/ha [2, 22]: 0 to 29% | pest or weed control at 140 g/ha [2, 22]: 0 to 29% | pest or weed control at 70 g/ha [2, 23]: 0 to 29% | pest or weed control at 140 g/ha [2, 23]: 0 to 29% | pest or weed control at 70 g/ha [2, 24]: 0 to 29% | pest or weed control at 140 g/ha [2, 24]: 0 to 29% | pest or weed control at 70 g/ha [2, 25]: 0 to 29% | pest or weed control at 140 g/ha [2, 25]: 0 to 29%

Nc1c(F)c(-c2ccc(OC(F)F)c(F)c2F)nc(C(=O)O)c1Cl [Compound 19]
pest or weed control at 70 g/ha ([1]; Triticum aestivum, TRZSS (wheat), application rate 70 g ai/ha, read-out: Visual Growth Reduction (%) 14 Days After Application, TRZSS): 0 to 29% | pest or weed control at 140 g/ha ([1]; Triticum aestivum, TRZSS (wheat), application rate 140 g ai/ha, read-out: Visual Growth Reduction (%) 14 Days After Application, TRZSS): 0 to 29% | pest or weed control at 70 g/ha ([1]; CYPES: yellow nutsedge (Cyperus esculentus), application rate 70 g ai/ha, read-out: Visual Growth Reduction (%) 14 Days After Application, CYPES): 0 to 29% | pest or weed control at 140 g/ha ([1]; CYPES: yellow nutsedge (Cyperus esculentus), application rate 140 g ai/ha, read-out: Visual Growth Reduction (%) 14 Days After Application, CYPES): 0 to 29% | pest or weed control at 70 g/ha ([1]; DIGSA: crabgrass (Digitaria sanguinalis), application rate 70 g ai/ha, read-out: Visual Growth Reduction (%) 14 Days After Application, DIGSA): 0 to 29% | pest or weed control at 140 g/ha ([1]; DIGSA: crabgrass (Digitaria sanguinalis), application rate 140 g ai/ha, read-out: Visual Growth Reduction (%) 14 Days After Application, DIGSA): 0 to 29% | pest or weed control at 70 g/ha ([1]; ECHCG: barnyardgrass (Echinochloa crus-galli), application rate 70 g ai/ha, read-out: Visual Growth Reduction (%) 14 Days After Application, ECHCG): 0 to 29% | pest or weed control at 140 g/ha ([1]; ECHCG: barnyardgrass (Echinochloa crus-galli), application rate 140 g ai/ha, read-out: Visual Growth Reduction (%) 14 Days After Application, ECHCG): 0 to 29% | pest or weed control at 70 g/ha ([1]; ORYSA: rice (Oryza sativa), application rate 70 g ai/ha, read-out: Visual Growth Reduction (%) 14 Days After Application, ORYSA): 0 to 29% | pest or weed control at 140 g/ha ([1]; ORYSA: rice (Oryza sativa), application rate 140 g ai/ha, read-out: Visual Growth Reduction (%) 14 Days After Application, ORYSA): 0 to 29% | pest or weed control at 70 g/ha ([1]; SETFA: giant foxtail (Setaria faberi), application rate 70 g ai/ha, read-out: Visual Growth Reduction (%) 14 Days After Application, SETFA): 0 to 29% | pest or weed control at 140 g/ha ([1]; SETFA: giant foxtail (Setaria faberi), application rate 140 g ai/ha, read-out: Visual Growth Reduction (%) 14 Days After Application, SETFA): 0 to 29% | pest or weed control at 70 g/ha ([1]; SORVU: grain sorghum (Sorghum vulgare), application rate 70 g ai/ha, read-out: Visual Growth Reduction (%) 14 Days After Application, SORVU): 0 to 29% | pest or weed control at 140 g/ha ([1]; SORVU: grain sorghum (Sorghum vulgare), application rate 140 g ai/ha, read-out: Visual Growth Reduction (%) 14 Days After Application, SORVU): 0 to 29% | pest or weed control at 70 g/ha ([1]; ZEAMX: maize, corn (Zea mays), application rate 70 g ai/ha, read-out: Visual Growth Reduction (%) 14 Days After Application, ZEAMX): 0 to 29% | pest or weed control at 140 g/ha ([1]; ZEAMX: maize, corn (Zea mays), application rate 140 g ai/ha, read-out: Visual Growth Reduction (%) 14 Days After Application, ZEAMX): 0 to 29% | melting point: 113 to 115 °C | pest or weed control at 70 g/ha [2, 19]: 0 to 29% | pest or weed control at 140 g/ha [2, 19]: 0 to 29% | pest or weed control at 70 g/ha [2, 20]: 0 to 29% | pest or weed control at 140 g/ha [2, 20]: 0 to 29% | pest or weed control at 70 g/ha [2, 21]: 0 to 29% | pest or weed control at 140 g/ha [2, 21]: 60 to 74% | pest or weed control at 70 g/ha [2, 22]: 0 to 29% | pest or weed control at 140 g/ha [2, 22]: 0 to 29% | pest or weed control at 70 g/ha [2, 23]: 0 to 29% | pest or weed control at 140 g/ha [2, 23]: 30 to 44% | pest or weed control at 70 g/ha [2, 24]: 75 to 84% | pest or weed control at 140 g/ha [2, 24]: 75 to 84% | pest or weed control at 70 g/ha [2, 25]: 0 to 29% | pest or weed control at 140 g/ha [2, 25]: 0 to 29%

Nc1c(F)c(-c2ccc(Br)c(F)c2)nc(C(=O)O)c1Cl [Compound 21]
pest or weed control at 70 g/ha [1, 3]: 95 to 100% | pest or weed control at 140 g/ha [1, 4]: 95 to 100% | pest or weed control at 70 g/ha [1, 5]: 75 to 84% | pest or weed control at 140 g/ha [1, 6]: 75 to 84% | pest or weed control at 70 g/ha [1, 7]: 95 to 100% | pest or weed control at 140 g/ha [1, 8]: 95 to 100% | pest or weed control at 70 g/ha [1, 9]: 0 to 29% | pest or weed control at 140 g/ha [1, 10]: 0 to 29% | pest or weed control at 70 g/ha [1, 11]: 95 to 100% | pest or weed control at 140 g/ha [1, 12]: 95 to 100% | pest or weed control at 70 g/ha [1, 13]: 95 to 100% | pest or weed control at 140 g/ha [1, 14]: 95 to 100% | pest or weed control at 70 g/ha [1, 15]: 60 to 74% | pest or weed control at 140 g/ha [1, 16]: 60 to 74% | pest or weed control at 70 g/ha [1, 17]: 95 to 100% | pest or weed control at 140 g/ha [1, 18]: 95 to 100% | melting point: 117 to 120 °C | pest or weed control at 70 g/ha [2, 19]: 95 to 100% | pest or weed control at 140 g/ha [2, 19]: 95 to 100% | pest or weed control at 70 g/ha [2, 20]: 95 to 100% | pest or weed control at 140 g/ha [2, 20]: 95 to 100% | pest or weed control at 70 g/ha [2, 21]: 95 to 100% | pest or weed control at 140 g/ha [2, 21]: 95 to 100% | pest or weed control at 70 g/ha [2, 22]: 95 to 100% | pest or weed control at 140 g/ha [2, 22]: 95 to 100% | pest or weed control at 70 g/ha [2, 23]: 95 to 100% | pest or weed control at 140 g/ha [2, 23]: 95 to 100% | pest or weed control at 70 g/ha [2, 24]: 95 to 100% | pest or weed control at 140 g/ha [2, 24]: 95 to 100% | pest or weed control at 70 g/ha [2, 25]: 95 to 100% | pest or weed control at 140 g/ha [2, 25]: 95 to 100%
